Assays:
[1] = test system: subjects with moderate to severe hidradenitis suppurativa (Hurley stage II or III); assay: Phase 2 clinical study (NCT03852472, AURORA): HiSCR, AN count, DF count and IHS4 at Week 12; type: in vivo, human; details: for HiSCR response rate % (n/N): biomarker sample subset of AURORA (n = 68 HS patients), placebo 25
Description: The study was a randomized, double-blind, placebo-controlled, three group Phase 2 trial in 435 subjects with moderate to severe hidradenitis suppurativa (Hurley stage II or III). Subjects were randomized 1:1:1 to a treatment of 10 mg avacopan twice daily, 30 mg avacopan twice daily or a placebo twice daily for 12 weeks. Following the 12 weeks double-blind treatment period, subjects on placebo were re-randomized 1:1 to receive 10 mg or 30 mg avacopan twice daily for additional 24 weeks. Subjects treated with avacopan continued to receive the same dose (either 10 mg or 30 mg twice daily) for additional 24 weeks. Subjects were on study treatment for 36 weeks and were followed for 8 weeks for assessment of safety and efficacy. The primary efficacy analysis was at 12 weeks. The primary efficacy endpoint assessed by the proportion of subjects achieving Hidradenitis Suppurativa Clinical Response (HiSCR) at Week 12. • At least 18 years of age • Clinical diagnosis of HS (Hurley Stage II or III), confirmed by a dermatologist, for at least 6 months prior to Screening • HS lesions are present in at least 2 distinct anatomic areas • Inadequate or loss of response to a systemic course of antibiotics typically of at least 90 days • Must have at least 5 inflammatory nodules or abscesses at screening • Use adequate birth control for subject and partners of child bearing potential • Willing and able to give written Informed Consent • Pregnant or breast-feeding • Any other skin disease that may interfere with the assessment of HS • Rapidly progressive, expanding HS within 30 days prior to screening • More than 20 draining fistulae at screening • Any anti-TNF-α treatment for HS or for other conditions prior to Day 1 visit will be prohibited. Exception: Subjects who were previously treated with an anti-TNF-α drug and discontinued treatment >12 weeks prior to Day 1 visit are allowed for enrollment • Systemic antibiotics are generally excluded • Topical antibiotics use within 14 days prior to Day 1 is excluded • Have started a topical prescription medicine for HS within 14 days prior to screening • A systemic medicine for HS, including biologics and other systemic therapies • Have received within 14 days prior to Day 1 visit or is expected to require oral or transdermal opioid analgesics (except for tramadol) for any reason The proportion of subjects achieving HiSCR at Week 12 is calculated as those subjects having at least a 50% reduction from baseline in abscess and inflammatory nodule (AN) count, with no increase in abscess count and no increase in draining fistula count number at Week 12 divided by the total number of subjects with non-missing value in each treatment group. p-values are obtained from a Cochran-Mantel-Haenszel (CMH) test stratified by stratification factors Hurley Stage (Stage II vs. III), and anti-TNF drug use (Treatment naïve vs. Previous treatment). Plasma samples were collected at baseline prior to the start of treatment from 68 enrolled HS patients in phase II AURORA study (NCT03852472) and from 20 independent age and gender matched healthy controls.

HS patients = assay: Phase 2 clinical study (NCT03852472): safety and tolerability; type: in vivo, human
Description: The study was a randomized, double-blind, placebo-controlled, three group Phase 2 trial in 435 subjects with moderate to severe hidradenitis suppurativa (Hurley stage II or III). Subjects were randomized 1:1:1 to a treatment of 10 mg avacopan twice daily, 30 mg avacopan twice daily or a placebo twice daily for 12 weeks. Following the 12 weeks double-blind treatment period, subjects on placebo were re-randomized 1:1 to receive 10 mg or 30 mg avacopan twice daily for additional 24 weeks. Subjects treated with avacopan continued to receive the same dose (either 10 mg or 30 mg twice daily) for additional 24 weeks.
Subjects were on study treatment for 36 weeks and were followed for 8 weeks for assessment of safety and efficacy. The primary efficacy analysis was at 12 weeks.

## Cc1ccc(NC(=O)[C@H]2CCCN(C(=O)c3c(C)cccc3F)[C@H]2c2ccc(NC3CCCC3)cc2)cc1C(F)(F)F [avacopan]
[1]; Hurley Stage II, Week 12, avacopan 10 mg BID
  % Difference (avacopan − placebo) in HiSCR: −13.9%
[1]; Hurley Stage II, Week 12, avacopan 10 mg BID, 95% CI (−26.8, −0.2)
  % Adjusted difference (avacopan − placebo) in HiSCR: −13.8%
[1]; Hurley Stage II, Week 12, avacopan 10 mg BID, placebo 35.3, p=0.0473
  HiSCR Responder Rate, n/N: 21.4%
[1]; Hurley Stage II, Week 12, avacopan 10 mg BID, placebo 35.3, p=0.0473, listed as Avacopan
  HiSCR Responder Rate, n/N: 18/84 (21.4) %
[1]; Hurley Stage II, Week 12, avacopan 30 mg BID
  % Difference (avacopan − placebo) in HiSCR: −4.3%
[1]; Hurley Stage II, Week 12, avacopan 30 mg BID, 95% CI (−18.1, 9.6)
  % Adjusted difference (avacopan − placebo) in HiSCR: −4.3%
[1]; Hurley Stage II, Week 12, avacopan 30 mg BID, placebo 35.3, p=0.5469
  HiSCR Responder Rate, n/N: 27/87 (31.0) %
[1]; Hurley Stage III (ITT1), Week 12, avacopan 10 mg BID, placebo 22.2
  HiSCR Responder Rate, n/N: 24.0%
[1]; Hurley Stage III (ITT1), Week 12, avacopan 10 mg BID, placebo 22.2, listed as Avacopan
  HiSCR Responder Rate, n/N: 12/50 (24) %
[1]; Hurley Stage III (ITT1), Week 12, avacopan 30 mg BID, placebo 22.2, p=0.0349 (text)
  HiSCR Responder Rate, n/N: 42.6%
[1]; Hurley Stage III (ITT1), Week 12, avacopan 30 mg BID, placebo 22.2, p=0.0349 (text), listed as Avacopan
  HiSCR Responder Rate, n/N: 20/47 (42.6) %
[1]; Hurley Stage III patients, week 12
  IHS4, AN, draining fistula and abscess count: consistent reduction
[1]; Hurley Stage III, Week 12, avacopan 10 mg BID
  % Difference (avacopan − placebo) in HiSCR: 1.8%
[1]; Hurley Stage III, Week 12, avacopan 10 mg BID, 95% CI (−15.3, 18.3)
  % Adjusted difference (avacopan − placebo) in HiSCR: 1.8%
[1]; Hurley Stage III, Week 12, avacopan 30 mg BID
  % Difference (avacopan − placebo) in HiSCR: 20.3%
[1]; Hurley Stage III, Week 12, avacopan 30 mg BID, 95% CI (1.6, 37.9)
  % Adjusted difference (avacopan − placebo) in HiSCR: 20.8%
[1]; Hurley Stage III, Week 12, avacopan 30 mg BID, placebo 20.7%
  percentage reduction in IHS4 Score: 36.9%
[1]; Hurley Stage III, Week 12, avacopan 30 mg BID, placebo 23.7%
  percentage reduction in AN count: 40.8%
[1]; Hurley Stage III, Week 12, avacopan 30 mg BID, placebo 24.0%
  percentage reduction in DF count: 45.2%
[1]; avacopan 10 mg
  HiSCR response rate % (n/N): 29.2 (7/24) %
[1]; avacopan 30 mg
  HiSCR response rate % (n/N): 54.2 (13/24) %
[1]; pre-specified Hurley Stage III (severe HS) patients at 12 weeks
  improvement in HiSCR vs. placebo: statistically significant dose-dependent improvement
HS patients
  safety and tolerability: safe and well tolerated

Source: patent publication US20240310388A1, “DIAGNOSTIC METHODS FOR HIDRADENITIS SUPPURATIVA” (AMGEN INC., priority 2023, published 2024)
